Measured values published in article PMC10888717, “Identification of Novel Non-Nucleoside Inhibitors of Zika Virus NS5 Protein Targeting MTase Activity” (International Journal of Molecular Sciences, 2024).
Like-named read-outs stand apart in the source and are kept apart here. Blank lines part the entries; values can stand above or below the molecule they belong to.

Tests used:
[1] = molecular target: T1, ZIKV NS5 MTase (Zika virus, UniProt A0A024B7W1); test: ZIKV NS5 MTase radioactive filter-binding assay (2′-O-MTase activity); assay type: biochemical; details: at least two experiments; for IC50: read-out: IC50 (half-maximal inhibitory enzymatic concentration)
T1 construct: KJ776791.2, aa 4–278; His6 (N); made in house; host or cells: Escherichia coli T7 Express Iq
Description: Selected compounds were evaluated in enzymatic inhibition assays against both ZIKV and DENV 2′-O-MTase activity (For details, see Figure S3 in Supplementary Materials). The screening of compounds at a concentration of 50 µM highlighted a higher inhibitory activity against ZIKV MTase. We thus focused our efforts on ZIKV and determined the IC50 values against ZIKV MTase.
Expression and purification of ZIKV NS5 MTase: The coding sequence of the ZIKV NS5 MTase domain (strain H/PF/2013, GenBank accession no. KJ776791.2, aa 4–278) was synthesized by Genscript and cloned into a pQE30 vector (Qiagen, Hilden, Germany) with an N-terminal His6 tag. The protein was expressed and purified following the procedures described in Coutard et al..
Briefly, after expression in Escherichia coli T7 Express Iq (New England BioLabs) in Terrific Broth at 17 °C overnight, bacterial pellets were resuspended in lysis buffer (50 mM Tris-HCl [pH 8], 300 mM NaCl, 5% glycerol, 0.1% Triton, 10 μg/mL DNase I, 2 tablets of EDTA-free antiprotease cocktail [Roche] and 0.25 mg/mL lysozyme). Following cell lysis and clarification, the protein was purified by affinity on immobilized metal affinity chromatography (IMAC, His prep column [GE Healthcare]), followed by size exclusion chromatography (Superdex S75 HR 16/20 column [GE Healthcare]). The NS5-MTase was concentrated and stored at −20 °C after adding glycerol to a final concentration of 40%.
Filter-binding assay: The transfer of tritiated methyl from ^[3H]SAM onto RNA substrate was monitored by a filter-binding assay (FBA), performed according to the method described previously. FBA was carried out in a reaction mixture [40 mM Tris-HCl (pH 8.0), 1 mM DTT, 2 μM SAM, and 0.1 μM 3H-SAM (Perkin Elmer, Shelton, CT, USA)] in the presence of 0.7 μM synthetic ^7mGpppAC4 and ZIKV NS5 MTase (500 nM). The enzyme was first mixed with an increasing concentration of inhibitors, previously suspended in dimethyl sulfoxide (DMSO), before the addition of RNA substrate and SAM, and then incubated at 30 °C. The final DMSO concentration in reactions was 5%. Reaction mixtures were stopped after 30 min incubation by their 10-fold dilution in ice-cold water. Samples were transferred to diethylaminoethyl (DEAE) filtermat (Perkin Elmer, Shelton, CT, USA) using a Filtermat Harvester (Packard Instruments, Meriden, CT, USA). The RNA-retaining mats were washed twice with 10 mM ammonium formate pH 8.0, twice with water, and once with ethanol before drying. They were soaked with scintillation fluid (Perkin Elmer, Shelton, CT, USA), and 3H-methyl transfer to the RNA substrates was determined using a Wallac MicroBeta TriLux Liquid Scintillation Counter (Perkin Elmer, Shelton, CT, USA). For IC50 measurements, values were normalized and fitted with Prism (GraphPad software version 10.1.1) using the following equation: Y = 100/(1 + ((X/IC50) ^ Hillslope)).

[2] = Stability test in human plasma; assay type: in vitro ADME; details: pH 7.4, 37 °C, up to 24 h, read-out: Plasma Stab. (T1/2, h ± SD) (converted)
Description: Finally, compounds were incubated in human plasma at 37 °C for 24 h. […] Taken together, stability studies confirmed that the series is suitable for further development.
(§1) For the ADME property determination, an Agilent 1260 Infinity HPLC-DAD interfaced with an Agilent MSD 6130 (Agilent Technologies, Palo Alto, CA, USA) was used. Chromatographic conditions were optimized using a Phenomenex Kinetex C18-100 Å column (150 × 4.6 mm) with 5 µm particle size and gradient elution with a binary solution (eluent A: H2O; eluent B: ACN; both eluents were acidified with formic acid 0.1% v/v) at room temperature. The LC analyses started with 5% of B (from t = 0 to t = 1 min), then B was increased to 95% (from t = 1 to t = 10 min) and then kept at 95% (from t = 10 to t = 19 min) and finally returned to initial conditions in 1.0 min. The flow rate was 0.6 mL/min and the injection volume was 10 µL.
A stock solution of the target compound in DMSO (2 mM) was incubated in a test tube with pooled human plasma (55.7 mg protein/mL) and HEPES buffer (25 mM, 140 mM NaCl pH 7.4) up to a final volume of 1.0 mL. The mixture was incubated at 37 °C, and at set time points (0.0, 0.5, 1, 4, 8, 24 h), samples of 50 µL were taken, mixed with 400 µL of ACN to stop the reaction of plasmatic esterases, and centrifuged at 5000 rpm for 15 min. The supernatant was removed and analyzed using the LC-UV/MS method previously described. The half-life (t½) was calculated according to the following equation: t½=ln 2/k where k represents the substrate elimination constant. For each compound, the determination was performed in three independent experiments.

[3] = test system: ZIKV; test: ZIKV inhibitory viral plaque reduction assay in Vero E6 cells; assay type: cell-based, Zika virus; details: for IC50: Zika virus
[4] = Metabolic stability in human liver microsomes; assay type: in vitro ADME; details: 1 h, 37 °C, three experiments
Description: The metabolic stability was investigated by incubating selected compounds with human liver microsomes (HLMs) for 1 h at 37 °C. The percentage of non-metabolized compounds and metabolites was analyzed by HPLC-UV-MS. […] HPLC analysis confirmed the presence of the oxidated metabolites in small percentages.
as §1
The test was performed as previously reported with minor modifications. Each compound was dissolved in DMSO and phosphate buffer (0.025 M, pH 7.4), and human liver microsomes (0.2 mg/mL) and a NADPH-regenerating system in MgCl2 48 mM were added to a final volume of 500 µL. This solution was incubated for 1 h at 37 °C and then the reaction was stopped and quenched using 1 mL of ACN. The reaction mixtures were then centrifuged (4000 rpm for 10 min) and the supernatant was taken, dried under nitrogen flow, and then resuspended in 100 µL of methanol. The parent drug and metabolites were subsequently determined using the chromatographic conditions described above. The percentage of non-metabolized compounds was calculated by comparison with reference solutions. The determination of metabolic stability for each compound was performed in three independent experiments.

[5] = Cytotoxicity assay (MTT) on Vero E6 cells; assay type: cell-based; details: African green monkey
Description: Compounds characterized by the best anti-enzymatic activity were tested against ZIKV in cellular assays. VERO E6 cells were infected with ZIKV at a multiplicity of infection (M.O.I.) of 0.1, and their activities were evaluated by a plaque reduction assay three days post-infection. Ribavirin was used as a reference compound. As reported in Table 2, compound 1, identified in the first screening, was unable to inhibit viral replication up to a 100 μM concentration. […] The cytotoxicity of the series was determined on the same cell line. […] Their selectivity indexes were calculated as the ratio between CC50 and IC50 values; the results highlight their promising safety profile.
Monolayers of 2.5 × 10^4 Vero E6 cells per well were grown in flat-bottom 96-well culture plates and allowed to adhere overnight. Then, when the cell layers were confluent, the medium was removed, the wells were washed twice with PBS, treated with 100 µL of DMEM with 10 µL DMSO alone (cell positive control) or with various concentrations of anti-NS5 inhibitory compounds under study (compound final concentrations of 100, 10, 1, 0.1, and 0.01 μM), and incubated for 3 days at 37 °C in a CO2. After treatment, an MTT (3-(4,5-dimethylthiazol-2-yl)-2,5-diphenyltetrazolium bromide) kit (Roche, Milan, Italy) was used according to the supplier’s instructions, and the absorbance of each well was determined using a microplate spectrophotometer at a wavelength of 570 nm. Cytotoxicity was calculated by dividing the average optical density of treated samples by the average of DMSO-treated samples (cell positive control).

[6] = test system: ZIKV; details: cited from earlier work
[7] = Vero C1008, read-out: IC50 ± SD (half-maximal inhibitory concentration, ZIKV plaque reduction)
[8] = VERO E6 cells, MTT, 3 days, read-out: CC50 ± SD (half-maximal cytotoxic concentration)

T1 sequence (A0A024B7W1 2524-2798): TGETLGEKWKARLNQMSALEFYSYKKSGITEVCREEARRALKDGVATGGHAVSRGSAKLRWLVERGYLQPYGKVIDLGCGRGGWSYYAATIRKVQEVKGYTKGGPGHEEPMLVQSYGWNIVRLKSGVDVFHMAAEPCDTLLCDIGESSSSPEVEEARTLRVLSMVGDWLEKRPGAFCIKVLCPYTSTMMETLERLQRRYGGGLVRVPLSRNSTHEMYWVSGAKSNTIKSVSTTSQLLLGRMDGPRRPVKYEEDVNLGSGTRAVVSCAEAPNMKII

IC50 (half-maximal inhibitory enzymatic concentration) [1]: completely abolished the activity
IC50 [1]: > 100 µM
Structure (SMILES): CNC(=O)c1ccc(NC(=O)c2cc3ccccc3s2)cc1 [Compound 11]

IC50 (half-maximal inhibitory enzymatic concentration) [1]: completely abolished the activity
IC50 [1]: > 100 µM
Structure (SMILES): CNC(=O)c1cccc(NC(=O)c2cc3ccccc3s2)c1 [Compound 12]

IC50 [1]: 46 µM
Structure (SMILES): O=C(Nc1ccc2c(c1)C(=O)NC2)c1cc2ccccc2s1 [Compound 13]

IC50 [1]: 31 µM
Structure (SMILES): CN1C(=O)c2ccc(NC(=O)c3cc4ccccc4s3)cc2C1=O [Compound 14]

Structure (SMILES): CN1C(=O)c2ccc(NC(=O)c3cc4cc(Cl)ccc4s3)cc2C1=O [Compound 15]
IC50 [1]: 14.2 µM
half-life [2]: > 24 h
SI (Selectivity Index, ratio between CC50 and IC50) ([3]; VERO E6 cells): >71.43
IC50 [3, 7]: 1.4 ± 0.3 µM
HLM Stab.% ± SD (percentage of non-metabolized compound) [4]: 98.57 ± 0.07%
CC50 at 3 days [5, 8]: > 100 µM

Structure (SMILES): CN1C(=O)c2ccc(NC(=O)c3sc4ccccc4c3Cl)cc2C1=O [Compound 16]
IC50 [1]: 13.1 µM
SI (Selectivity Index, ratio between CC50 and IC50) ([3]; VERO E6 cells): >38.46
IC50 [3, 7]: 2.6 ± 0.2 µM
CC50 at 3 days [5, 8]: > 100 µM

IC50 [1]: 100 µM
Structure (SMILES): CN1C(=O)c2ccc(NC(=O)c3cc4c(Cl)cccc4s3)cc2C1=O [Compound 18]

IC50 [1]: 40 µM
Structure (SMILES): Cc1ccc2sc(C(=O)Nc3ccc4c(c3)C(=O)N(C)C4=O)cc2c1 [Compound 19]

Structure (SMILES): Cc1cccc2cc(C(=O)Nc3ccc4c(c3)C(=O)N(C)C4=O)sc12 [Compound 20]
IC50 [1]: 18.9 µM
half-life [2]: > 24 h
SI (Selectivity Index, ratio between CC50 and IC50) ([3]; VERO E6 cells): >15.15
IC50 [3, 7]: 6.6 ± 0.5 µM
HLM Stab.% ± SD (percentage of non-metabolized compound) [4]: 98.40 ± 0.12%
CC50 at 3 days [5, 8]: > 100 µM

Structure (SMILES): CCN(CC)CCCC(C)Nc1ccnc2cc(Cl)ccc12 (centres unmarked) [chloroquine]
EC50 ([6]; read-out: in vitro EC50 against ZIKV): ~5 µM

IC50 ([3]; Vero C1008, VERO E6 cells, ZIKV M.O.I. 0.1, at least two experiments, read-out: IC50 ± SD (half-maximal inhibitory concentration, ZIKV plaque reduction)): 95.5 ± 0.6 µM
Structure (SMILES): NC(=O)c1ncn([C@@H]2O[C@H](CO)[C@@H](O)[C@H]2O)n1 [ribavirin, 1-β-d-Ribofuranosyl-1,2,4-Triazole-3-Carboxamide, reference compound]
EC50 against ZIKV [6]: high micromolar range
SI (Selectivity Index, ratio between CC50 and IC50) ([3]; VERO E6 cells): 1.05
CC50 at 3 days [5]: 100 ± 14 µM
